Assay results taken from article PMC2918522, “Characterization of the first beta-class carbonic anhydrase from an arthropod (Drosophila melanogaster) and phylogenetic analysis of beta-class carbonic anhydrases in invertebrates” (BMC Biochemistry, 2010).

Target: the molecule itself
Assay: dynamic light scattering + SEC; DLS (Zetasizer ZS): proteins exchanged to 50 mM Na2HPO4 pH 7.0, 100 mM NaCl, temperature scan 4-50°C, mass estimated from the hydrodynamic diameter with a globular protein standard curve; analytical gel filtration: Superdex200 10/300GL, 50 mM Na2HPO4, 650 mM NaCl pH 7.0, 20-30 μg protein per run

Row | Molecule | stoichiometry N
1 | Drosophila melanogaster β-carbonic anhydrase (DmBCA) (enzyme, UniProt Q9VHJ5 1-255, looked up, cDNA from S2 cells; A thrombin cleavage site stands between DmBCA and the C-terminal His6 (primer R4 encodes LVPRGS-HHHHHH after the last residue); also called D. melanogaster β-CA; Drosophila β-CA; source: Sf9 insect cells (baculovirus), purified from the culture supernatant (Probond nickel-chelating resin)) MERILRGIMRYRNTTREQMVKEFQKVRDNPEPKAVFFTCMDSRMIPTRYTDTHVGDMFVVRNAGNLIPHAQHFQDEYFSCEPAALELGCVVNDIRHIIVCGHSDCKAMNLLYQLRDPDFASKLNRRLSPLRSWLCTHANTSLERFQEWRDAGMKDPLIFSSETPLRRFVAYIDEEQKFALEDKLSQINTLQQMSNIASYGFLKARLESHDLHIHALWFDIYTGDIYYFSRGAKRFLPVDEDTVDRLSEEVRRFYS | 2

target: T1, DmBCA (Drosophila melanogaster, UniProt Q9VHJ5); assay: stopped-flow CO2 hydration assay; assay type: biochemical
T1 construct: gene CAHbeta; C-terminal thrombin site and His6; baculovirus/Sf9, purified from culture supernatant; thrombin treatment to remove tag; 28/27 kDa before/after thrombin; dimer
T1 sequence (Q9VHJ5 1-255): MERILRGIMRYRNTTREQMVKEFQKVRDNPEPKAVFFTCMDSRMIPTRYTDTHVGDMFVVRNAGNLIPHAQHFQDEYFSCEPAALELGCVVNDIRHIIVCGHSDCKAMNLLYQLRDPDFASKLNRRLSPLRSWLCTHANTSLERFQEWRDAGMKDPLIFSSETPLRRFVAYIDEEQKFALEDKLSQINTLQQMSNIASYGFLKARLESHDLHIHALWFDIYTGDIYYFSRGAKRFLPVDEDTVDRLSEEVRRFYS

Row | Molecule | Ki
2 | O=C(O)O [HCO3^-] | 26900 µM
3 | O=S(O)O [HSO3^-] | 1290 µM
4 | F [F^-] | 800 µM
5 | OB(O)c1ccccc1 [Ph-B(OH)2] | 22400 µM
6 | S [HS^-] | 1010 µM
7 | N#CO [CNO^-] | 730 µM
8 | I [I^-] | 1180 µM
9 | O=NO [NO2^-] | 28600 µM
10 | Br [Br^-] | 1040 µM
11 | N#CS [SCN^-] | 1280 µM
12 | NS(N)(=O)=O [H2NSO2NH2] | 150 µM
13 | O=S(=O)(O)O [SO4^2-] | 1360 µM
14 | O=[N+]([O-])O [NO3^-] | 43700 µM
15 | NS(=O)(=O)O [H2NSO3H] | 2450 µM
16 | Cl [Cl^-] | 970 µM
